From EP3339292A1, “COCRYSTALS OF APREMILAST” (Zaklady Farmaceutyczne Polpharma SA, priority 2016, dated 2018)

Experiments:
Type in all cases: physicochemical
[1] = Moisture sorption analysis (Dynamic Vapour Sorption, DVS); details: result in words
Protocol: Water Vapour Sorption isotherms were obtained using a Dynamic Vapour Sorption apparatus (model: DVS - Advantage, supplier: Surface Measurement Systems Limited). The DVS apparatus consists of an ultra-microbalance housed inside a temperature-controlled cabinet. The sample was placed into a DVS sample pan under a stream of nitrogen (200 sccm) at 25°C. The humidity was increased ramping in 10% RH (relative humidity) steps from close to 0% RH to 90% RH (sorption phase). Next the humidity was decreased in a similar fashion for the desorption phase. The sample was held at each RH step for mass stabilization (dm/dt 0.02 %/min) but not less than 10 minutes. Two cycles of sorption and desorption were investigated.

Solubility of cocrystal = details: RT
[2] = Dissolution studies (Ph. Eur. paddle method, tablets, HPLC analysis); details: buffer pH 6.8 + 0.3% SLS, result in words
Protocol: Dissolution studies were performed using a Hanson SR8PLUS dissolution apparatus, according to European Pharmacopoeia apparatus, paddle method. The samples were tested in 900mL pH 6.8 with 0.3% SLS at 37.0°C +/- 0.5°C and the paddle rotation speed was set at 75 rpm. Dissolution study was conducted for 60min and samples were analyzed using HPLC method.
• Injection Volume: 0.5, 0.2 µl; • Run Time: 15.0 minutes; • Column: Symmetry C18; 250x4,6mm; 5µm, Vial: 1:A,1, 1:c,7, 1:c,8; • Mobile phase: gradient: acetonitrile : buffer (1 vol. TEA and 150 vol. 2,7g/l KH2PO4, pH2,0 adjust with H3PO4); • Column temp: 25°C; and • Flow: 1 ml/min.

CCOc1cc([C@@H](CS(C)(=O)=O)N2C(=O)c3cccc(NC(C)=O)c3C2=O)ccc1OC.O=C(O)c1ccc(O)cc1 [APM-4HB, Cocrystal of N-[2-[(1S)-1-(3-ethoxy-4-methoxyphenyl)-2-(methylsulfonyl)ethyl]-1,3-dioxo-2,3-dihydro-1H-isoindol-4-yl]acetamide and 4-hydroxybenzoic acid]
hygroscopicity [1]: slightly hygroscopic | Solubility (Solubility of cocrystal): Solubility: 42.5µg/ml (RT) | dissolution profile compared to prior art Form B of Apremilast ([2]; listed as cocrystal of Apremilast with 4-hydroxybenzoic acid): higher dissolution rate | dissolution profile compared to prior art Form B of Apremilast ([2]; listed as cocrystals of Apremilast with 4-hydroxybenzoic acid): superior dissolution profile

CCOc1cc([C@@H](CS(C)(=O)=O)N2C(=O)c3cccc(NC(C)=O)c3C2=O)ccc1OC.Cn1c(=O)c2c(ncn2C)n(C)c1=O [APM-CAF, Cocrystal of N-[2-[(1 S)-1-(3-ethoxy-4-methoxyphenyl)-2-(methylsulfonyl)ethyl]-1,3-dioxo-2,3-dihydro-1H-isoindol-4-yl]acetamide and 1,3,7-trimethylpurine-2,6-dione (caffeine)]
hygroscopicity [1]: slightly hygroscopic | dissolution profile compared to prior art Form B of Apremilast [2]: higher dissolution rate
